Earlier results as cited in paper PMC6008465 (British Journal of Cancer, 2018).

Test system: patients
Parameters: method as in Mekinist (trametinib) tablets package insert, Novartis 2017
Details: oral; ref Mekinist (trametinib) tablets package insert, Novartis 2017; cited from earlier work

## CC(=O)Nc1cccc(-n2c(=O)n(C3CC3)c(=O)c3c(Nc4ccc(I)cc4F)n(C)c(=O)c(C)c32)c1 [trametinib]
  Adverse events associated in clinical trials: retinal pigment epithelial detachment, retinal vein occlusion, interstitial lung disease, skin toxicity, and cardiomyopathy
